Holding throughout (assay): NCI tumour cell line growth inhibition, 48 h
Assay [1] has as its system HOP-62 NSCLC.
For assay [2], the system named is UACC-257 melanoma.
Assay [3] deals with SR leukemia.
The test system of assay [4] is NCI-H460 lung.
Assay [5] concerns 786-0 renal.
Assay [6] relates to MALME-3M melanoma.
The subject of assay [7] is RPMI-8226 leukemia.
Assay [8] concerns HOP-92 NSCLC.
Assay [9] deals with SF-539 CNS.
The subject of assay [10] is SNB-19 CNS.

“And” between values parts separate entries of the source, which are not always exact repeats. Identical values can stand only once.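 Interpolation was linear, between the two tested concentrations surrounding the appropriate level; five concentrations were tested over 48 hours in 96-well plates. Abbreviation: GI50, concentration required for 50% inhibition of growth. TGI marks complete inhibition of growth.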

`C=C1C(=O)O[C@H]2[C@H]1CC/C(COC(=O)N1CCC[C@H]1C(=O)Nc1ccc(OC)c(C(N)=O)c1O)=C\CC[C@@]1(C)O[C@@H]21`: the GI50 was 12.8 µM in [1]; 2.88 µM in [2]; 1.59 µM in assay [3]; 11.4 µM in assay [4]; 2.27 µM in [5]; 2.42 µM in assay [6]. The GI50 was 1.93 µM in [7], 1.23 µM in assay [8], 2.07 µM in assay [9] and 7.62 µM in [10]. Further, the TGI amounted to 30.2 µM in assay [1]; 10.9 µM in [2]; 12.7 µM in assay [3]; 29 µM in assay [4]; 6.56 µM in assay [5]; 6.54 µM in [6]. Further, the TGI in assay [7] came to 4.87 µM; in [8], 3.32 µM; in assay [9], 5.76 µM; in [10], 23.9 µM.
With `Fc1cccc(COc2ccc(Nc3ncnc4cc(-c5ccc[nH]5)sc34)cc2Cl)c1`, the GI50 in assay [1] is 3.01 µM; in [2] it was 9.38 µM; in [3], 13.6 µM; in [4] it was 2.09 µM; in [5], 1.22 µM; in assay [6] it was 2.65 µM. For the same compound, the GI50 was 0.133 µM in assay [7], 0.31 µM in assay [8], 0.931 µM in assay [9] and 2.22 µM in assay [10]. In addition, the TGI in [1] was 8.52 µM; in assay [2] it was over 25 µM; in assay [3], over 25 µM; in assay [4], over 15.3 µM; in assay [5], 5.32 µM; in [6], 14.6 µM. The TGI was over 15.9 µM in assay [7], 2.39 µM in [8], 4.81 µM in assay [9] and over 25 µM in assay [10].
Regarding `Cc1ccc(NC(=O)/C(=N\Nc2ccc([N+](=O)[O-])cc2[N+](=O)[O-])C2C(=O)NC(=O)NC2=O)cc1`, the TGI in [1], in assay [2], in assay [3], in assay [4], in assay [5] and in assay [6] was over 100 µM throughout. For the same compound, the TGI in [7] was over 100 µM; in assay [8] it was over 100 µM; in assay [9], 90.9 µM; in assay [10], over 100 µM.
Consider `N#CC(C(=O)C(=O)NCCCNC(=O)C(=O)C(C#N)c1ccccc1)c1ccccc1` (stereo not given), for which the TGI in [1], in assay [2], in assay [3], in assay [4], in assay [5] and in assay [6] was over 100 µM each time. Besides, the TGI in assay [7], in assay [8], in assay [9] and in assay [10] was over 100 µM in each case.
For the compound `CC[C@H](CC#N)OC(=O)N[C@@H](C)c1cccc(NC(=O)Nc2ccc(-c3cnco3)c(OC)c2)c1`, the GI50 in [1] is 0.0856 µM; in assay [2] it was 0.0922 µM; in [3], 0.0289 µM; in [4], 0.0328 µM; in [5], 0.188 µM; in assay [6] it was 0.161 µM. For the same compound, the GI50 is 0.152 µM in assay [7], 2.46 µM in assay [8], 0.0386 µM in assay [9] and 0.125 µM in assay [10]. For the same compound, the TGI was 36.8 µM in assay [1]; 23.1 µM in assay [2]; 4.3 µM in assay [3]; 17.1 µM in assay [4]; over 93 µM in assay [5]; 31.2 µM in [6]. Moreover, the TGI was 19.4 µM in assay [7], 44.7 µM in assay [8], 28 µM in [9] and over 100 µM in assay [10].
On to `CCOC(=O)NN1C(=O)C(=P(c2ccccc2)(c2ccccc2)c2ccccc2)C(C(=O)OCC)=C1C`, for which the TGI in [1], in assay [2], in [3], in assay [4], in assay [5] and in assay [6] was over 100 µM in each case. In addition, the TGI in assay [7], in [8], in [9] and in assay [10] was over 100 µM in each case.
As to `COc1cc(-c2cn(-c3ccc(Cl)cc3)c(C)c2C(=O)C(F)(F)F)cc(OC)c1OC`, the GI50 in assay [1] was over 100 µM; in assay [2], 14.1 µM; in [3], 4.92 µM; in assay [4], 33.4 µM; in assay [5], over 100 µM; in assay [6], over 100 µM. Moreover, the GI50 in [7] was 5.3 µM; in assay [8] it was 2.27 µM; in assay [9], over 100 µM; in assay [10], over 100 µM. Also, the TGI in [1], in assay [2], in assay [3], in [4], in assay [5] and in assay [6] was over 100 µM in each case. Besides, the TGI is over 100 µM in assay [7], 56 µM in [8], over 100 µM in [9] and over 100 µM in [10].
For the compound `Cc1cc(C(C#N)c2ccc(Cl)cc2)c(Cl)cc1NC(=O)c1cc(I)cc(I)c1O` (stereo not given), the GI50 in [1] was 13.9 µM and 15.2 µM; in assay [2], 14.4 µM and 15.1 µM; in [3], 5.97 µM and 9.04 µM; in assay [4] it was 4.87 µM and 19.5 µM; in [5], 12.6 µM and 16.6 µM; in assay [6], 4.93 µM and 10.4 µM. The GI50 in [7] is 3.15 µM and 11.1 µM; in assay [8] it was 1.47 µM; in assay [9] it was 8.18 µM and 13.2 µM; in assay [10], 5.97 µM and 10.4 µM. For the same compound, the TGI in assay [1] was 34.4 µM and 32.4 µM; in [2] it was 28.1 µM and 29.6 µM; in assay [3], 34.5 µM and > 100 µM; in [4], 28.5 µM and 46.3 µM; in assay [5], 25.1 µM and 34.7 µM; in [6], 20.2 µM and 27.5 µM. Moreover, the TGI in [7] was 13 µM and 43.5 µM; in assay [8], 4.65 µM; in assay [9] it was 23.2 µM and 32.4 µM; in assay [10] it was 27.1 µM and 27.5 µM.
For the compound `Cc1cccc(C(C)C)c1NC(=O)C(=O)CC(=O)c1c(C)n([O-])c2ccccc2[n+]1=O`, the TGI in [1] was over 100 µM; in assay [2], 48 µM; in assay [3] it was 78.5 µM; in [4], 60 µM; in assay [5] it was over 100 µM; in [6], 44.1 µM. In addition, the TGI in assay [7] is 72.1 µM; in assay [8] it was over 100 µM; in [9], 83.8 µM; in assay [10] it was over 100 µM.

Source of the values: PubChem BioAssay (NCI).
